# Measurements reported in paper PMC10154247, “Complex regulation in a Comamonas platform for diverse aromatic carbon metabolism” (Nature Chemical Biology, 2023).
# How the values were obtained:
# [1] = biological target: T1, PobA (4HB 3-monooxygenase) (Comamonas testosteroni, UniProt B7WVQ9); assay: NAD(P)H oxidation at […] nm; type: biochemical; settings: 10 mM 4HB, 5 mM MgCl2, pH 7.5, 30 °C
# T1 construct: gene CtesDRAFT_PD2627; N-terminal His tag with TEV site, start codon removed; recombinant in E. coli BL21 (DE3), Ni-NTA
# [2] = biological target: T2, ME-2 (Comamonas testosteroni, UniProt B7X1D4); assay: NADH formation at […] nm; settings: 0.5 and 2 mM, 1 mM L-malate, 0.5 mM NAD+, 5 mM MnCl2, pH 7.5, 30 °C
# T2 construct: gene CtesDRAFT_PD5092
# T2 sequence (B7X1D4 2-769): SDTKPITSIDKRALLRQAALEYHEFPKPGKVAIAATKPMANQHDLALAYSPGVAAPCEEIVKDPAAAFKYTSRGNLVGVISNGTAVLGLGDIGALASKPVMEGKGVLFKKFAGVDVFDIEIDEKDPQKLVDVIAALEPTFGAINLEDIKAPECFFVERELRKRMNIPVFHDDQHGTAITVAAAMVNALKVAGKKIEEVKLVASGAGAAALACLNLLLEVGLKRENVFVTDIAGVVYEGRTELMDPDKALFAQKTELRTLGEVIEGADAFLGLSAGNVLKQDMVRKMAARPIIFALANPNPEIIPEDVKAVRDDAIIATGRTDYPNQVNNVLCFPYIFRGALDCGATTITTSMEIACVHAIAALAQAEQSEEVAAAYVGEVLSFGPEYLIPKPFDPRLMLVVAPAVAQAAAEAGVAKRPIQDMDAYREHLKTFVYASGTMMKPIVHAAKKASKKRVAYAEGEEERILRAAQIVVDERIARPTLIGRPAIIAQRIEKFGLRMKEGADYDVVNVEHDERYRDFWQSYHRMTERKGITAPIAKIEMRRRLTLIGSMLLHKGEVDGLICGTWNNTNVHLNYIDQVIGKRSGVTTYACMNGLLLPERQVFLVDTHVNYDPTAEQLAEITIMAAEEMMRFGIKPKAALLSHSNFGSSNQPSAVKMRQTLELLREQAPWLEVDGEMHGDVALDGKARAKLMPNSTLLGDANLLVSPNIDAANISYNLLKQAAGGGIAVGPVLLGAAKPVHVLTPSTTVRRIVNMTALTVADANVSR
# [3] = biological target: T3, ME-1 (Comamonas testosteroni, UniProt B7WXG5); assay: NADPH formation at […] nm; settings: allosteric activator, 0.5 and 2 mM; 1 mM L-malate, 0.5 mM NADP+, 5 mM MnCl2, pH 7.5, 30 °C
# T3 construct: gene CtesDRAFT_PD0934
# T3 sequence (B7WXG5 2-765): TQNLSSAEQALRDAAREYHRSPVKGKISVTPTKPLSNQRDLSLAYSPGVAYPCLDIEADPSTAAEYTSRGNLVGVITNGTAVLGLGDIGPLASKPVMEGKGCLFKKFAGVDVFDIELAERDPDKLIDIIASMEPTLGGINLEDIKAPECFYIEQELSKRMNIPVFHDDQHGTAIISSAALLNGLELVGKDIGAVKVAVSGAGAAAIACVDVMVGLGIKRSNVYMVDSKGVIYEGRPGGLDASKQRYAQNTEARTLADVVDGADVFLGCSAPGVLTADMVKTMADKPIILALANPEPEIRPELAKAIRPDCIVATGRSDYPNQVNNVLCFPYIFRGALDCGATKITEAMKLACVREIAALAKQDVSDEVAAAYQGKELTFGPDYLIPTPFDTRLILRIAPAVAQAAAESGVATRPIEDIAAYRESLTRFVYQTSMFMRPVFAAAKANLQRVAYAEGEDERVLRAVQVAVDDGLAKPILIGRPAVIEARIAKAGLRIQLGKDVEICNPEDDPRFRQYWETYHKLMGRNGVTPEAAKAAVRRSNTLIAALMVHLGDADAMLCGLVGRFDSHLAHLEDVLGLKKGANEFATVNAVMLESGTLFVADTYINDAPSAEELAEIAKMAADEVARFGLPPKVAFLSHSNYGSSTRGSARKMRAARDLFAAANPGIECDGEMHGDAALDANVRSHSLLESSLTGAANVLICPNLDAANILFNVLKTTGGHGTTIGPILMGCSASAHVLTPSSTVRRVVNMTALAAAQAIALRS
# [4] = biological target: T4, Mdh (Comamonas testosteroni, UniProt A0A096F047); assay: NAD(P)H oxidation at […] nm; type: biochemical; settings: 10 mM oxaloacetate, 5 mM MgCl2, pH 7.5, 30 °C
# T4 construct: gene mdh_1; C-terminal His tag, start and stop codons deleted; recombinant in E. coli BL21 (DE3), Ni-NTA
# T4 sequence (A0A096F047 2-329): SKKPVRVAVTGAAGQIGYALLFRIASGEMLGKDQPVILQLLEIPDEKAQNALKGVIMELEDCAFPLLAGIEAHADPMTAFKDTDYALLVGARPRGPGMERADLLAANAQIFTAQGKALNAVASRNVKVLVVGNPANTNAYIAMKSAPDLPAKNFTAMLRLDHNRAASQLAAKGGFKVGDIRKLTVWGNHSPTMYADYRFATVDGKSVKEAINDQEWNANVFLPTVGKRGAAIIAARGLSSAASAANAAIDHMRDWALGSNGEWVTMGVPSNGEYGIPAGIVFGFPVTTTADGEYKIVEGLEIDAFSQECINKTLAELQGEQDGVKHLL
# [5] = biological target: T5, PEPs (PEP synthase) (Comamonas testosteroni, UniProt B7X5R8); assay: pyruvate consumption by HPLC-RI; type: biochemical; settings: allosteric inhibitor, 2 or 5 mM (printed as 'up to'); 1 mM pyruvate, 1.5 mM ATP, 5 mM MgCl2, pH 7.5, 30 °C
# T5 construct: gene CtesDRAFT_PD3828; N-terminal His tag with TEV site, start codon removed; recombinant in E. coli BL21 (DE3), Ni-NTA
# T5 sequence (B7X5R8 2-796): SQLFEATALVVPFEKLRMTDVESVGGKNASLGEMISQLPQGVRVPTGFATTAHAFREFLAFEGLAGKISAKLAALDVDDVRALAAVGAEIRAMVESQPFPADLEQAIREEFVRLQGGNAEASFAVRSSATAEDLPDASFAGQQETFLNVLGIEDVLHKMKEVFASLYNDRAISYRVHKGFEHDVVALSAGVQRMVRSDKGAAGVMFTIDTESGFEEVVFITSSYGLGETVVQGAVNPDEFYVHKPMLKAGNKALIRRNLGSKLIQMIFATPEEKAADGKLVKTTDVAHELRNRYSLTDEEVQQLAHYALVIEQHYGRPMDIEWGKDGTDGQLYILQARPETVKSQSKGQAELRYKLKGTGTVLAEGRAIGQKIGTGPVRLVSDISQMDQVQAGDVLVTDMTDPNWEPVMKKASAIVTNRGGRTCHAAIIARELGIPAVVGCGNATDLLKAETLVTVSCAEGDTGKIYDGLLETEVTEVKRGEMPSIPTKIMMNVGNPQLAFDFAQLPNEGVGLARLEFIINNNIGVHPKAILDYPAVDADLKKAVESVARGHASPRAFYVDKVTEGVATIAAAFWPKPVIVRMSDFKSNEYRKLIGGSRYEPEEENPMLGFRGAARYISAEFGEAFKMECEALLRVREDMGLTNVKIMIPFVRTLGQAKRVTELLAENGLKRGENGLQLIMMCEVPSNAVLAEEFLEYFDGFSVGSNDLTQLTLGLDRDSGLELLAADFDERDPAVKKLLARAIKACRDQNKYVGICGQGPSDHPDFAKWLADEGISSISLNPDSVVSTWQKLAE
compound,measurement,setting,value
NC(=O)C1=CN([C@@H]2O[C@H](COP(=O)(O)OP(=O)(O)OC[C@H]3O[C@@H](n4cnc5c(N)ncnc54)[C@H](OP(=O)(O)O)[C@@H]3O)[C@@H](O)[C@H]2O)C=CC1 [NADPH],NAD(P)H oxidation at 340 nm,[1],"NADPH was the cofactor for PobA and for ME-1, IDH1 and IDH2"
O=C(O)CCC(=O)O [succinate],relative activity (%),[2]; allosteric activator,moderate activation in the presence of succinate and glutamate
same,relative activity (%),[3],moderate activation in the presence of succinate and glutamate
NC(=O)C1=CN([C@@H]2O[C@H](COP(=O)(O)OP(=O)(O)OC[C@H]3O[C@@H](n4cnc5c(N)ncnc54)[C@H](O)[C@@H]3O)[C@@H](O)[C@H]2O)C=CC1 [NADH],NAD(P)H oxidation at 340 nm,[4],NADH was the preferred cofactor for ME-2 and Mdh
O=C(O)CCC(=O)C(=O)O [αKG],% decrease in pyruvate consumption,[5],~ 35%
same,relative activity (%),[2]; allosteric inhibitor,only high concentrations of αKG had a significant inhibitory impact on ME-2
